Data taken from US20110293727A1, “CHIMERIC THERAPEUTICS, COMPOSITIONS, AND METHODS FOR USING SAME” (priority 2008, published 2011).

Test system: inhibitory dsRNA
Assay: K9 protein-RNA complex by electrophoresis of labeled inhibitory dsRNA and K9 protein
Assay type: binding
Conditions: 4 M Urea, 10 mM Hepes, pH 8.15; 1.5% agarose gel; FIG. 5
Protocol: Inhibitory dsRNA 3′-labeled with Dy547 is purchased from Dharmacon (Lafayette, Colo.). Labeled and unlabeled inhibitory dsRNA solutions are diluted to 4 μM in 4 M Urea, 10 mM Hepes, pH 8.15. […] Labeled and unlabeled protein solutions are diluted to 3 μM in 4M Urea.
Labeled and unlabeled RNA and protein are used in separate binding reactions. Samples are run on a 1.5% TAE-agarose gel for 35 minutes at 110 volts.
A typhoon phosphoimager(GE) is used to visualize the cy5-only, DY547-only and cy5/DY547 labeled RNA protein complexes. Filters are employed to separately detect Dy547 (FIG. 5A) and cy5 (FIG. 5B) fluorescent labels. To image all fluorescence on the gel, cy5-filtered and dy547-filtered images are overlayed (FIG. 5C).

Q: With “K9: modified HBV core protein (contains E77C), 9-lysine C-terminal tail, His tag, SEQ ID NO: 10 [Mutant K9]” as the substance, how does the “complex formation of K9 protein with inhibitory dsRNA (shifted band)” value read?
A: Its value is “form a complex in solution”.
